Results: US20100330003A1, “ORAL CARE PRODUCT AND METHODS OF USE AND MANUFACTURE THEREOF” (Colgate-Palmolive Company, priority 2008, published 2010)

Test system: S. sanguis
Assay: ammonia production by S. sanguis at pH 4.0 (Ammonia Assay kit)
Type: cell-based
Conditions: 5 millimolar amino acid, 0.1% sucrose, pH 4.0, 37° C., 30 minutes
Method: An overnight culture of S. sanguis is grown at 37° C. in trypticase soy broth (Becton Dickinson, Sparks, Md.). The culture is centrifuged at 5,000 rpm for 5 minutes at 1 milliliter at a time into preweighed tubes in order to accumulate approximately 5 milligrams of wet pellet weight. The pellet is then resuspended into 20 millimolar potassium phosphate buffer (JT Baker. Phillipsburg, N.J.), pH 4.0, to simulate a stressed environment for the bacterial cell where ammonia would be produced for survival. The final concentration is 5 milligram per milliliter. To this final concentration, a 5 millimolar final concentration of L-arginine, L-citrulline, or L-ornithine is added along with a 0.1% final concentration of sucrose (VWR, West Chester, Pa.). This mixture is then incubated at 37° C. in a shaking water bath for 30 minutes before ammonia production is determined.
In order to analyze for ammonia, an Ammonia Assay kit is used from Diagnostic Chemicals Limited (Oxford, Conn.). The intended use of this specific kit is for the in vitro quantification of ammonia in plasma, but the procedure is modified in order to determine and quantity the ammonia production in plaque and/or bacteria.

N=C(N)NCCC[C@H](N)C(=O)O [L-Arginine, L-arginine] was tested, and the “Ammonia (ppm)” value (Mean of 6 separate trials) was 1.06 ppm, the “Ammonia (ppm)” value (Trial 1) was 0.509 ppm and the “Ammonia (ppm)” value (Trial 2) was 0.866 ppm. For the same molecule, the “Ammonia (ppm)” value (Trial 3) was 2.20 ppm, the “Ammonia (ppm)” value (Trial 4) was 1.62 ppm and the “Ammonia (ppm)” value (Trial 5) was 0.5 ppm. For the same molecule, the “Ammonia (ppm)” value (Trial 6) was 0.679 ppm.
NC(=O)NCCC[C@H](N)C(=O)O [L-Citrulline, L-citrulline] was tested, and the “Ammonia (ppm)” value (Mean of 6 separate trials) was 0.951 ppm, the “Ammonia (ppm)” value (Trial 1) was 0.185 ppm and the “Ammonia (ppm)” value (Trial 2) was 0.346 ppm. The “Ammonia (ppm)” value (Trial 3) was 0.332 ppm, the “Ammonia (ppm)” value (Trial 4) was 0.194 ppm and the “Ammonia (ppm)” value (Trial 5) was 0.226 ppm. The “Ammonia (ppm)” value (Trial 6) was 0.951 ppm.
For NCCC[C@H](N)C(=O)O [L-Ornithine, L-ornithine], the “Ammonia (ppm)” value (Mean of 6 separate trials) was 0.134 ppm, the “Ammonia (ppm)” value (Trial 1) was 0.185 ppm and the “Ammonia (ppm)” value (Trial 2) was 0.260 ppm. The “Ammonia (ppm)” value (Trial 3) was 0.047 ppm, the “Ammonia (ppm)” value (Trial 4) was 0.0 ppm and the “Ammonia (ppm)” value (Trial 5) was 0.181 ppm. The “Ammonia (ppm)” value (Trial 6) was 0.135 ppm.
